Measurements from publication PMC6599250, “Functional diversity of inhibitors tackling the differentiation blockage of MLL-rearranged leukemia” (Journal of Hematology & Oncology, 2019).
Read-outs that look alike come from different tables or passages of the source.

What was measured:
Type in all cases: cell-based
EOL-1 (MLL-TD) cells = assay: Cell proliferation (alamarBlue) EOL-1; settings: Homo sapiens
Description: (§1) Cells were seeded in the optimal growth medium at 4000–5000 cells/well in a 96 MTP and cultured 18–24 h before inhibitor treatment.

MOLM-13 (MLL-AF9) cells = assay: Cell proliferation (alamarBlue) MOLM-13; settings: Homo sapiens
Description: as §1

NOMO-1 (MLL-AF9) cells = assay: Cell proliferation (alamarBlue) NOMO-1; settings: Homo sapiens
Description: as §1

KOPN-8 (MLL-ENL) cells = assay: Cell proliferation (alamarBlue) KOPN-8; settings: Homo sapiens
Description: as §1

OCI-AML-3 (MLL-WT) cells = assay: Cell proliferation (alamarBlue) OCI-AML-3; settings: Homo sapiens
Description: as §1

Jurkat (MLL-WT) cells = assay: Cell proliferation (alamarBlue) Jurkat; settings: Homo sapiens
Description: as §1

[1] = system: OCI-AML-2 (MLL-AF9) cells; assay: Cell proliferation (alamarBlue) OCI-AML-2; settings: Homo sapiens
Description: as §1

RS4;11 (MLL-AF4) cells = assay: Cell proliferation (alamarBlue) RS4;11; settings: Homo sapiens, RS4-11, read-out: IC50 proliferation, RS4;11 (MLL-AF4)
Description: as §1

HL-60 (MLL-WT) cells = assay: Cell proliferation (alamarBlue) HL-60; settings: for IC50: Homo sapiens, read-out: IC50 proliferation
Description: as §1

ML-2 (MLL-AF6) cells = assay: Cell proliferation (alamarBlue) ML-2
Description: as §1

[2] = system: MV4-11, MOLM-13 and HL-60 cells; assay: Cell cycle analysis (PI, flow cytometry); settings: 4 days of treatment (Figure S2)
Description: Cells were washed with PBS and fixed overnight at − 20 °C with 70% ethanol. Fixed cells were stained with PI solution (Sigma-Aldrich St. Louis, MO, USA) solution containing RNase A (Qiagen, Hilden, Germany). Fluorescence was measured with FACS Canto II (BD Biosciences, Heidelberg, Germany) flow cytometer and data was analyzed with FACSDiva software.

SEM (MLL-AF4) cells = assay: Cell proliferation (alamarBlue) SEM
Description: as §1

[3] = system: selected MLL-fused models; assay: Cell proliferation, AML/ALL panel; settings: specifically in selected MLL-fused models (Fig. 2a); read-out: proliferation IC50 (significant effects)
Description: as §1

OCI-AML-5 (MLL-WT) cells = assay: Cell proliferation (alamarBlue) OCI-AML-5; settings: Homo sapiens
Description: as §1

HL-60 cells = assay: CD11b protein expression by flow cytometry, HL-60; settings: non-fused HL-60 cell line, 4 and 7 days of treatment
Description: (§2) Four thousand cells per well were seeded 24 h before they were treated with the indicated inhibitor in a 96 MTP. After 4 or 7 days of treatment, cells were washed with PBS and stained with CD11b - APC (BioLegend, San Diego, California, USA) and DAPI (Thermo Fisher Scientific, Waltham, Massachusetts, USA) or AnnexinV – FITC (BioLegend, San Diego, California, USA) and PI solution (Sigma-Aldrich St. Louis, Missouri, USA) using the FACS Canto II (BD Biosciences, Heidelberg, Germany) and data was analyzed with FACSDiva software.

MV4-11 (MLL-AF4) cells = assay: Cell proliferation (alamarBlue) MV4-11; settings: Homo sapiens
Description: as §1

MOLM-14 (MLL-AF9) cells = assay: Cell proliferation (alamarBlue) MOLM-14; settings: Homo sapiens
Description: as §1

[4] = system: MLL-fused cell lines (MV4-11, MOLM-13); assay: CD11b protein expression by flow cytometry, MLL-fused lines; settings: 4 and 7 days of treatment
Description: as §2

IC50 (MOLM-13 (MLL-AF9) cells; MOLM-13, read-out: IC50 proliferation, MOLM-13 (MLL-AF9), D1): > 10 µM
IC50 (MOLM-13 (MLL-AF9) cells; MOLM-13, read-out: IC50 proliferation, MOLM-13 (MLL-AF9), D4): 0.14 µM
IC50 (MOLM-13 (MLL-AF9) cells; MOLM-13, read-out: IC50 proliferation, MOLM-13 (MLL-AF9), D7): 0.28 µM
IC50 (OCI-AML-3 (MLL-WT) cells; OCI-AML-3, read-out: IC50 proliferation, OCI-AML-3 (MLL-WT), D1): > 10 µM
IC50 (OCI-AML-3 (MLL-WT) cells; OCI-AML-3, read-out: IC50 proliferation, OCI-AML-3 (MLL-WT), D4): 1.37 µM
IC50 (OCI-AML-3 (MLL-WT) cells; OCI-AML-3, read-out: IC50 proliferation, OCI-AML-3 (MLL-WT), D7): 1.56 µM
IC50 (Jurkat (MLL-WT) cells; read-out: IC50 proliferation, Jurkat (MLL-WT), D1): > 10 µM
IC50 (Jurkat (MLL-WT) cells; read-out: IC50 proliferation, Jurkat (MLL-WT), D4): 9 µM
IC50 (Jurkat (MLL-WT) cells; read-out: IC50 proliferation, Jurkat (MLL-WT), D7): 9.09 µM
IC50 ([1]; OCI-AML2, read-out: IC50 proliferation, OCI-AML-2 (MLL-AF9), D1): > 10 µM
IC50 ([1]; OCI-AML2, read-out: IC50 proliferation, OCI-AML-2 (MLL-AF9), D4): 8.26 µM
IC50 ([1]; OCI-AML2, read-out: IC50 proliferation, OCI-AML-2 (MLL-AF9), D7): 9.15 µM
IC50 (RS4;11 (MLL-AF4) cells; D1): > 10 µM
IC50 (RS4;11 (MLL-AF4) cells; D4): > 10 µM
IC50 (RS4;11 (MLL-AF4) cells; D7): 5.99 µM
IC50 (HL-60 (MLL-WT) cells; HL-60, 24 h): > 10 µM
IC50 (HL-60 (MLL-WT) cells; HL-60, 96 h): 9.04 µM
IC50 (HL-60 (MLL-WT) cells; HL-60, 168 h): > 10 µM
IC50 (OCI-AML-5 (MLL-WT) cells; OCI-AML-5, read-out: IC50 proliferation, OCI-AML-5 (MLL-WT), D1): > 10 µM
IC50 (OCI-AML-5 (MLL-WT) cells; OCI-AML-5, read-out: IC50 proliferation, OCI-AML-5 (MLL-WT), D4): > 10 µM
IC50 (OCI-AML-5 (MLL-WT) cells; OCI-AML-5, read-out: IC50 proliferation, OCI-AML-5 (MLL-WT), D7): 8.56 µM
IC50 (MV4-11 (MLL-AF4) cells; MV4-11, read-out: IC50 proliferation, MV4-11 (MLL-AF4), D1): > 10 µM
IC50 (MV4-11 (MLL-AF4) cells; MV4-11, read-out: IC50 proliferation, MV4-11 (MLL-AF4), D4): 0.09 µM
IC50 (MV4-11 (MLL-AF4) cells; MV4-11, read-out: IC50 proliferation, MV4-11 (MLL-AF4), D7): 0.03 µM
IC50 (MOLM-14 (MLL-AF9) cells; MOLM-14, read-out: IC50 proliferation, MOLM-14 (MLL-AF9), D1): 6.89 µM
IC50 (MOLM-14 (MLL-AF9) cells; MOLM-14, read-out: IC50 proliferation, MOLM-14 (MLL-AF9), D4): 0.31 µM
IC50 (MOLM-14 (MLL-AF9) cells; MOLM-14, read-out: IC50 proliferation, MOLM-14 (MLL-AF9), D7): 0.23 µM
Structure (SMILES): Cc1c(CN2CCC3(CC2)CN(c2ncnc4sc(CC(F)(F)F)cc24)C3)ccc2c1cc(C#N)n2CC(N)=O [BAY-155]
IC50 (EOL-1 (MLL-TD) cells; EOL1, read-out: IC50 proliferation, EOL-1 (MLL-TD), D1): 6.83 µM
IC50 (EOL-1 (MLL-TD) cells; EOL1, read-out: IC50 proliferation, EOL-1 (MLL-TD), D4): 1.62 µM
IC50 (EOL-1 (MLL-TD) cells; EOL1, read-out: IC50 proliferation, EOL-1 (MLL-TD), D7): 1.14 µM
IC50 (NOMO-1 (MLL-AF9) cells; NOMO-1, read-out: IC50 proliferation, NOMO-1 (MLL-AF9), D1): > 10 µM
IC50 (NOMO-1 (MLL-AF9) cells; NOMO-1, read-out: IC50 proliferation, NOMO-1 (MLL-AF9), D4): 0.15 µM
IC50 (NOMO-1 (MLL-AF9) cells; NOMO-1, read-out: IC50 proliferation, NOMO-1 (MLL-AF9), D7): 0.07 µM
IC50 (KOPN-8 (MLL-ENL) cells; KOPN-8, read-out: IC50 proliferation, KOPN-8 (MLL-ENL), D1): > 10 µM
IC50 (KOPN-8 (MLL-ENL) cells; KOPN-8, read-out: IC50 proliferation, KOPN-8 (MLL-ENL), D4): 6.34 µM
IC50 (KOPN-8 (MLL-ENL) cells; KOPN-8, read-out: IC50 proliferation, KOPN-8 (MLL-ENL), D7): 1.89 µM
anti-proliferation effect in non-fused HL-60 (HL-60 (MLL-WT) cells; HL-60, 4 days of treatment (Fig. 1a)): only affected with the 10 μM treatment
IC50 (ML-2 (MLL-AF6) cells; read-out: IC50 proliferation, ML-2 (MLL-AF6), D1): > 10 µM
IC50 (ML-2 (MLL-AF6) cells; read-out: IC50 proliferation, ML-2 (MLL-AF6), D4): > 10 µM
IC50 (ML-2 (MLL-AF6) cells; read-out: IC50 proliferation, ML-2 (MLL-AF6), D7): > 10 µM
cell cycle effect [2]: decrease of cells in S and G2/M phase with increasing concentrations
IC50 (SEM (MLL-AF4) cells; read-out: IC50 proliferation, SEM (MLL-AF4), D1): > 10 µM
IC50 (SEM (MLL-AF4) cells; read-out: IC50 proliferation, SEM (MLL-AF4), D4): 0.66 µM
IC50 (SEM (MLL-AF4) cells; read-out: IC50 proliferation, SEM (MLL-AF4), D7): 0.79 µM
IC50 [3]: < 1 µM
CD11b level (HL-60 cells): did not increase CD11b level
CD11b protein level [4]: increased CD11b protein level in a dose and time-dependent manner
